Tested on: human cortical slices
Test: TUNEL/NeuN staining of human cortical slices
Assay type: cell-based
Experimental: β-amyloid1-42 and reverse Aβ (Aβ42-1) were obtained from BACHEM (Torrance, Calif.). These peptides were dissolved in 0.1% NH3OH at 222 μM. For treatments, Aβ or reverse Aβ was aggregated at 50 μM in Neurobasal media with B-27 supplement and 0.5 mM glutamine at 37° C. for 24 hours. Then, the slice culture media was removed, and the slices were treated with 1 mL of 25 μM or 50 μM Aβ, reverse Aβ, or vehicle for 24 hour. Human TTR (Calbiochem) was added to slices together with the Aβ treatment at final concentrations of 0.03, 0.3, and 3 μM TTR. sAPPα was obtained from Sigma (St. Louis, Mo.). Unless otherwise stated, all sAPPα treatments were performed at 1 nM 48 hours prior to the addition of Aβ. The 10 amino acid fragment of the carboxyl-terminal region of sAPPα (592-601 of APP695; SEVKMDAEFR was added according to the same protocol for sAPPα. Because a variable amount of tissue was obtained from each patient, not all treatments were performed on all patients.
Cortical slice cryosections were stained with terminal deoxynucleotidyl transferase-mediated, dUTP nick end labeling (TUNEL) and with an anti-NeuN antibody. Cells with DNA fragmentation were determined by the terminal deoxynucleotidyl transferase incorporation of fluorescein isothiocyanate (FITC)-12-dUTP into DNA (In Situ Cell Death Detection kit, Roche Biochem, Indianapolis, Ind.). At least 3 random images per slice were generated by confocal analysis at 600× magnification. The number of TUNEL positive, NeuN positive, and both TUNEL and NeuN positive cells were then quantified.

[1] = Aβ treatment, 1 subject, FIG. 6B

In the case of β-amyloid1-42 [Aβ], the “DNA strand breaks as indicated by TUNEL” value (50 μM Aβ) is reported as “resulted in DNA strand breaks”, the “Percent of neurons that were TUNEL positive (% TUNEL/NeuN)” value [1] is reported as “increased” and the “Percent of total TUNEL positive cells (% TUNEL)” value [1] is reported as “increased”.
